Target: T1, FLT3-ITD (Homo sapiens, UniProt P36888)
T1 sequence (P36888 1-993): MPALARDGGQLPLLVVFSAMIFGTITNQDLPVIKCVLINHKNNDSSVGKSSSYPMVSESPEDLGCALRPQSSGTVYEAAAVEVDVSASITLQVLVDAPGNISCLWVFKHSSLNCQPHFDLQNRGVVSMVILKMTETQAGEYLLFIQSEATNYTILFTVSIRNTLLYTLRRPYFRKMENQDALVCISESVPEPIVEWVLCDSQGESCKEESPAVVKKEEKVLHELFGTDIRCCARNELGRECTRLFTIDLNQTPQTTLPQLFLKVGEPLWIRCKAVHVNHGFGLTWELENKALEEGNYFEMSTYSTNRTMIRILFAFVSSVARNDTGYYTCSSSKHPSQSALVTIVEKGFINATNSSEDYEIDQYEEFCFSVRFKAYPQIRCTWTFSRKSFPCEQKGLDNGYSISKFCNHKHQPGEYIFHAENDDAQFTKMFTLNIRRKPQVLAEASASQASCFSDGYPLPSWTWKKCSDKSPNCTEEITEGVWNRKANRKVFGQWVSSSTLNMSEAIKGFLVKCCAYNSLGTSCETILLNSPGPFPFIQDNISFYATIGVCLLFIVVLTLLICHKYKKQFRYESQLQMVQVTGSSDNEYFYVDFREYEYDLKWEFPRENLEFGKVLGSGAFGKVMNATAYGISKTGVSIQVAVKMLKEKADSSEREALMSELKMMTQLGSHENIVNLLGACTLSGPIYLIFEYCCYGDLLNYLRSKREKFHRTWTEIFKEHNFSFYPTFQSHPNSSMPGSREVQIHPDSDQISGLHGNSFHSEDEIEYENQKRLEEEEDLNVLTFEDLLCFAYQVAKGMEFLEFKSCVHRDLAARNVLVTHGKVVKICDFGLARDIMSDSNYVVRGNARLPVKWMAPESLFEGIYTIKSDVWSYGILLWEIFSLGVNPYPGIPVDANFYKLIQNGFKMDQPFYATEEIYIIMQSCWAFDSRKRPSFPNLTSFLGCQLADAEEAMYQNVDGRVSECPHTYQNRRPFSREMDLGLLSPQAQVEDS
Experiment: FLT3-ITD recombinant enzyme kinase assay (AlphaScreen)
Assay type: biochemical
Conditions: 8 pt; read-out: FLT3_ITD 8 pt: IC50
Summary of the method: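 AlphaScreen proximity signal at 580 nm, from PY20 acceptor and streptavidin donor beads, measures tyrosine phosphorylation of 30 nM biotin-poly(Glu4-Tyr) peptide by recombinant kinase. ATP: 10 μM (FLT3 mutants), 100 μM (c-KIT). IC50 from loss of signal.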

| Compound | IC50 |
| --- | --- |
| O=C(Cc1ccc(-c2cnc(Nc3cnn(C(F)F)c3)nc2)c(F)c1)Nc1cc(C(F)(F)F)ccn1 [Compound P-0024, 2-[4-[2-[[1-(difluoromethyl)pyrazol-4-yl]amino]pyrimidin-5-yl]-3-fluoro-phenyl]-N-[4-(trifluoromethyl)-2-pyridyl]acetamide] | 0.0001 to 10 µM |
| Cc1ncc(NC(=O)Cc2ccc(-c3cnc(Nc4cn[nH]c4)nc3)cc2F)cc1C(F)(F)F [Compound P-0027, 2-[2-fluoro-4-[2-(1H-pyrazol-4-ylamino)pyrimidin-5-yl]phenyl]-N-[6-methyl-5-(trifluoromethyl)-3-pyridyl]acetamide] | 0.0001 to 10 µM |
| O=C(Cc1ccc(-c2cnc3[nH]cc(F)c3c2)cc1F)Nc1ccnc(C(F)(F)F)c1 [Compound P-0029, 2-[2-fluoro-4-(3-fluoro-1H-pyrrolo[2,3-b]pyridin-5-yl)phenyl]-N-[2-(trifluoromethyl)-4-pyridyl]acetamide] | 0.0001 to 10 µM |
| CC(=O)c1c[nH]c2ncc(-c3ccc(CC(=O)Nc4ccnc(C(F)(F)F)c4)c(F)c3)cc12 [Compound P-0031, 2-(4-(3-acetyl-1H-pyrrolo[2,3-b]pyridin-5-yl)-2-fluorophenyl)-N-(2-(trifluoromethyl)pyridin-4-yl)acetamide] | 0.0001 to 10 µM |
| O=C(Cc1ccc(-c2cnc3[nH]cc(C(=O)C4CC4)c3c2)cc1F)Nc1ccnc(C(F)(F)F)c1 [Compound P-0032, 2-[4-[3-(cyclopropanecarbonyl)-1H-pyrrolo[2,3-b]pyridin-5-yl]-2-fluoro-phenyl]-N-[2-(trifluoromethyl)-4-pyridyl]acetamide] | 0.0001 to 10 µM |
| O=C(Cc1ccc(-c2cnc(Nc3cnn4ccccc34)nc2)cc1F)Nc1ccnc(C(F)(F)F)c1 [Compound P-0033, 2-[2-fluoro-4-[2-(pyrazolo[1,5-a]pyridin-3-ylamino)pyrimidin-5-yl]phenyl]-N-[2-(trifluoromethyl)-4-pyridyl]acetamide] | 0.0001 to 10 µM |
| CC(C)(C)c1ccc(NC(=O)Cc2ccc(-c3cnc4[nH]cc(F)c4c3)cc2F)cn1 [Compound P-0043, N-(6-tert-butyl-3-pyridyl)-2-[2-fluoro-4-(3-fluoro-1H-pyrrolo[2,3-b]pyridin-5-yl)phenyl]acetamide] | 0.0001 to 10 µM |
| O=C(Cc1ccc(-c2cnc3[nH]cc(F)c3c2)cc1F)Nc1cc(Cl)c(C2CC2)cn1 [Compound P-0044, N-(4-chloro-5-cyclopropyl-2-pyridyl)-2-[2-fluoro-4-(3-fluoro-1H-pyrrolo[2,3-b]pyridin-5-yl)phenyl]acetamide] | 0.0001 to 10 µM |
| COc1nn(C[C@H](C)O)cc1Nc1ncc(-c2ccc(CC(=O)Nc3cncc(C(F)(F)F)c3)c(F)c2)cn1 [Compound P-0050, 2-[2-fluoro-4-[2-[[1-[(2S)-2-hydroxypropyl]-3-methoxy-pyrazol-4-yl]amino]pyrimidin-5-yl]phenyl]-N-[5-(trifluoromethyl)-3-pyridyl]acetamide] | 0.0001 to 10 µM |
| Cn1cnc(Nc2ncc(-c3ccc(CC(=O)Nc4cncc(C(F)(F)F)c4)c(F)c3)cn2)c1 [Compound P-0052, 2-[2-fluoro-4-[2-[(1-methylimidazol-4-yl)amino]pyrimidin-5-yl]phenyl]-N-[5-(trifluoromethyl)-3-pyridyl]acetamide] | 0.0001 to 10 µM |
| O=C(Cc1ccc(-c2cnc3[nH]cc(F)c3c2)cc1F)Nc1cncc(C(F)(F)F)c1 [Compound P-0053, 2-[2-fluoro-4-(3-fluoro-1H-pyrrolo[2,3-b]pyridin-5-yl)phenyl]-N-[5-(trifluoromethyl)-3-pyridyl]acetamide] | 0.0001 to 10 µM |
| CC(=O)c1c[nH]c2ncc(-c3ccc(CC(=O)Nc4cncc(C(F)(F)F)c4)c(F)c3)cc12 [Compound P-0055, 2-[4-(3-acetyl-1H-pyrrolo[2,3-b]pyridin-5-yl)-2-fluoro-phenyl]-N-[5-(trifluoromethyl)-3-pyridyl]acetamide] | 0.0001 to 10 µM |
| Cc1ncc(NC(=O)Cc2ccc(-c3cnc4c(c3)C3(CC3)C(=O)N4)cc2F)cc1C(F)(F)F [Compound P-0057, 2-[2-fluoro-4-(2-oxospiro[1H-pyrrolo[2,3-b]pyridine-3,1′-cyclopropane]-5-yl)phenyl]-N-[6-methyl-5-(trifluoromethyl)-3-pyridyl]acetamide] | 0.0001 to 10 µM |

Results, then the molecule that gave them:

| IC50 | Compound |
| --- | --- |
| 0.0001 to 10 µM | Cc1cc(CC(=O)Nc2cccc(C(F)(F)F)c2)ccc1-c1cnc2[nH]c(-c3ccccc3)cc2c1 [Compound P-0002, 2-[3-methyl-4-(2-phenyl-1H-pyrrolo[2,3-b]pyridin-5-yl)phenyl]-N-[3-(trifluoromethyl)phenyl]acetamide] |
| 0.0001 to 10 µM | COc1ncc(NC(=O)Cc2ccc(-c3cnc(Nc4cn[nH]c4)nc3)cc2)cc1C(F)(F)F [Compound P-0025, N-[6-methoxy-5-(trifluoromethyl)-3-pyridyl]-2-[4-[2-(1H-pyrazol-4-ylamino)pyrimidin-5-yl]phenyl]acetamide] |
| 0.0001 to 10 µM | COc1ncc(NC(=O)Cc2ccc(-c3cnc(Nc4cn[nH]c4)nc3)cc2F)cc1C(F)(F)F [Compound P-0026, 2-[2-fluoro-4-[2-(1H-pyrazol-4-ylamino)pyrimidin-5-yl]phenyl]-N-[6-methoxy-5-(trifluoromethyl)-3-pyridyl]acetamide] |
| 0.0001 to 10 µM | O=C(Cc1ccc(-c2cnc3[nH]c(Cl)cc3c2)cc1F)Nc1ccnc(C(F)(F)F)c1 [Compound P-0030, 2-[4-(2-chloro-1H-pyrrolo[2,3-b]pyridin-5-yl)-2-fluoro-phenyl]-N-[2-(trifluoromethyl)-4-pyridyl]acetamide] |
| 0.0001 to 10 µM | COc1ncc(NC(=O)Cc2ccc(-c3cnc4[nH]cc(F)c4c3)cc2F)cc1C(F)(F)F [Compound P-0034, 2-[2-fluoro-4-(3-fluoro-1H-pyrrolo[2,3-b]pyridin-5-yl)phenyl]-N-[6-methoxy-5-(trifluoromethyl)-3-pyridyl]acetamide] |
| 0.0001 to 10 µM | COc1ncc(NC(=O)Cc2ccc(-c3cnc4[nH]cc(C(C)=O)c4c3)cc2F)cc1C(F)(F)F [Compound P-0035, 2-[4-(3-acetyl-1H-pyrrolo[2,3-b]pyridin-5-yl)-2-fluoro-phenyl]-N-[6-methoxy-5-(trifluoromethyl)-3-pyridyl]acetamide] |
| 0.0001 to 10 µM | COc1ncc(NC(=O)Cc2ccc(-c3cnc4[nH]cc(C(=O)C5CC5)c4c3)cc2F)cc1C(F)(F)F [Compound P-0036, 2-[4-[3-(cyclopropanecarbonyl)-1H-pyrrolo[2,3-b]pyridin-5-yl]-2-fluoro-phenyl]-N-[6-methoxy-5-(trifluoromethyl)-3-pyridyl]acetamide] |
| 0.0001 to 10 µM | COc1ncc(NC(=O)Cc2ccc(-c3cnc(Nc4cnn5ccccc45)nc3)cc2F)cc1C(F)(F)F [Compound P-0037, 2-[2-fluoro-4-[2-(pyrazolo[1,5-a]pyridin-3-ylamino)pyrimidin-5-yl]phenyl]-N-[6-methoxy-5-(trifluoromethyl)-3-pyridyl]acetamide] |
| 0.0001 to 10 µM | COc1ncc(NC(=O)Cc2ccc(-c3cnc4[nH]c(Cl)cc4c3)cc2F)cc1C(F)(F)F [Compound P-0038, 2-[4-(2-chloro-1H-pyrrolo[2,3-b]pyridin-5-yl)-2-fluoro-phenyl]-N-[6-methoxy-5-(trifluoromethyl)-3-pyridyl]acetamide] |
| 0.0001 to 10 µM | COc1ncc(NC(=O)Cc2cc(F)c(-c3cnc4[nH]c(Cl)cc4c3)cc2F)cc1C(F)(F)F [Compound P-0045, 2-[4-(2-chloro-1H-pyrrolo[2,3-b]pyridin-5-yl)-2,5-difluoro-phenyl]-N-[6-methoxy-5-(trifluoromethyl)-3-pyridyl]acetamide] |
| 0.0001 to 10 µM | COc1ncc(NC(=O)Cc2ccc(-c3cnc4[nH]c(Cl)cc4c3)c(F)c2)cc1C(F)(F)F [Compound P-0046, 2-[4-(2-chloro-1H-pyrrolo[2,3-b]pyridin-5-yl)-3-fluoro-phenyl]-N-[6-methoxy-5-(trifluoromethyl)-3-pyridyl]acetamide] |
| 0.0001 to 10 µM | COc1ncc(NC(=O)Cc2ccc(-c3cnc4[nH]cc(Cl)c4n3)cc2F)cc1C(F)(F)F [Compound P-0047, 2-[4-(7-chloro-5H-pyrrolo[2,3-b]pyrazin-2-yl)-2-fluoro-phenyl]-N-[6-methoxy-5-(trifluoromethyl)-3-pyridyl]acetamide] |
| 0.0001 to 10 µM | COc1ncc(NC(=O)Cc2cc(F)c(-c3cnc4[nH]cc(F)c4c3)cc2F)cc1C(F)(F)F [Compound P-0051, 2-[2,5-difluoro-4-(3-fluoro-1H-pyrrolo[2,3-b]pyridin-5-yl)phenyl]-N-[6-methoxy-5-(trifluoromethyl)-3-pyridyl]acetamide] |

Source: US10160747B2, “Compounds and methods for kinase modulation, and indications therefor” (Plexxikon Inc., priority 2016, dated 2018)
